Our source for the mutagenic call values is PubChem BioAssay AID1259407 (Chemical Carcinogenesis Research Information System (CCRIS), 2018).

The data set relates to CCRIS mutagenicity, Ames/micronucleus/aberration tests. Description: CCRIS mutagenicity studies.
The mark [1] stands for this setting: Test System: AMES SALMONELLA TYPHIMURIUM, Strain/Indicator: TA98, Metabolic Activation: NONE, Method: PREINCUBATION
Setting [2] is: Test System: AMES SALMONELLA TYPHIMURIUM, Strain/Indicator: TA100, Metabolic Activation: NONE, Method: PREINCUBATION
The mark [3] stands for this setting: Test System: AMES SALMONELLA TYPHIMURIUM, Strain/Indicator: TA1535, Metabolic Activation: NONE, Method: PREINCUBATION
Where [4] appears, read: Test System: AMES SALMONELLA TYPHIMURIUM, Strain/Indicator: TA1537, Metabolic Activation: NONE, Method: PREINCUBATION
The mark [5] stands for this setting: Test System: AMES SALMONELLA TYPHIMURIUM, Strain/Indicator: TA100, Metabolic Activation: RAT, LIVER, S-9, AROCLOR 1254, Method: PREINCUBATION

Activity calls are given as the source filed them. No rule for the calls is given here.

As for `COC1=CC(=O)C[C@@H](C)[C@]12Oc1c(Cl)c(OC)cc(OC)c1C2=O`, the mutagenic call (End Point: IN VITRO CHROMOSOMAL ABERRATIONS, Test System: PERIPHERAL HUMAN BLOOD LYMPHOCYTES, Metabolic Activation: NONE) was “active; positive (ploidy changes)”; the mutagenic call (End Point: IN VITRO MICRONUCLEUS, Test System: CHO CELLS, Metabolic Activation: RAT, LIVER, S-9, AROCLOR 1254) is “active; positive”; the mutagenic call (End Point: IN VITRO MICRONUCLEUS, Test System: V79 CELLS, Metabolic Activation: NONE) is “active; positive”; the mutagenic call (Test System: AMES SALMONELLA TYPHIMURIUM, Strain/Indicator: TA97, Metabolic Activation: HAMSTER, LIVER, S-9, AROCLOR 1254 (10 OR 30%), Method: PREINCUBATION) was “inactive; negative”; the mutagenic call (Test System: AMES SALMONELLA TYPHIMURIUM, Strain/Indicator: TA97, Metabolic Activation: NONE, Method: PREINCUBATION) was “inactive; negative”; the mutagenic call (Test System: AMES SALMONELLA TYPHIMURIUM, Strain/Indicator: TA97, Metabolic Activation: RAT, LIVER, S-9, AROCLOR 1254 (10 OR 30%), Method: PREINCUBATION) is “inactive; negative”. Also, the mutagenic call was “inactive; negative” (Test System: AMES SALMONELLA TYPHIMURIUM, Strain/Indicator: TA98, Metabolic Activation: HAMSTER, LIVER, S-9, AROCLOR 1254 (10 OR 30%), Method: PREINCUBATION); “inactive; negative” under setting [1]; “inactive; negative” (Test System: AMES SALMONELLA TYPHIMURIUM, Strain/Indicator: TA98, Metabolic Activation: RAT, LIVER, S-9, AROCLOR 1254 (10 OR 30%), Method: PREINCUBATION); “inactive; negative” (Test System: AMES SALMONELLA TYPHIMURIUM, Strain/Indicator: TA100, Metabolic Activation: HAMSTER, LIVER, S-9, AROCLOR 1254 (10 OR 30%), Method: PREINCUBATION); “inactive; negative” under setting [2]; “inactive; negative” (Test System: AMES SALMONELLA TYPHIMURIUM, Strain/Indicator: TA100, Metabolic Activation: RAT, LIVER, S-9, AROCLOR 1254 (10 OR 30%), Method: PREINCUBATION). Besides, the mutagenic call was “inactive; negative” (Test System: AMES SALMONELLA TYPHIMURIUM, Strain/Indicator: TA100, Metabolic Activation: RAT, LIVER, S-9, PHENOBARBITAL, Method: PREINCUBATION); “inactive; negative” (Test System: AMES SALMONELLA TYPHIMURIUM, Strain/Indicator: TA1535, Metabolic Activation: HAMSTER, LIVER, S-9, AROCLOR 1254 (10 OR 30%), Method: PREINCUBATION); “inactive; negative” under setting [3]; “inactive; negative” (Test System: AMES SALMONELLA TYPHIMURIUM, Strain/Indicator: TA1535, Metabolic Activation: RAT, LIVER, S-9, AROCLOR 1254 (10 OR 30%), Method: PREINCUBATION); “inactive; negative” (Test System: AMES SALMONELLA TYPHIMURIUM, Strain/Indicator: TA1537, Metabolic Activation: HAMSTER, LIVER, S-9, AROCLOR 1254 (30%), Method: PREINCUBATION); “inactive; negative” under setting [4]. In addition, the mutagenic call by setting is: (Test System: AMES SALMONELLA TYPHIMURIUM, Strain/Indicator: TA1537, Metabolic Activation: RAT, LIVER, S-9, AROCLOR 1254 (30%), Method: PREINCUBATION) “inactive; negative”; (Test System: MOUSE LYMPHOMA, Strain/Indicator: L5178Y (TK+/TK-), Metabolic Activation: NONE, Method: MICROWELL) “active; positive”; (Test System: MOUSE LYMPHOMA, Strain/Indicator: L5178Y (TK+/TK-), Metabolic Activation: S-9, Method: MICROWELL) “active; positive”.

For the compound `CCCCOB(OCCCC)OCCCC`, the mutagenic call was “inactive; negative” (Test System: AMES SALMONELLA TYPHIMURIUM, Strain/Indicator: TA98, Metabolic Activation: HAMSTER, LIVER, S-9, AROCLOR 1254, Method: PREINCUBATION); “inactive; negative” under setting [1]; “inactive; negative” (Test System: AMES SALMONELLA TYPHIMURIUM, Strain/Indicator: TA98, Metabolic Activation: RAT, LIVER, S-9, AROCLOR 1254, Method: PREINCUBATION); “inactive; negative” (Test System: AMES SALMONELLA TYPHIMURIUM, Strain/Indicator: TA100, Metabolic Activation: HAMSTER, LIVER, S-9, AROCLOR 1254, Method: PREINCUBATION); “inactive; negative” under setting [2]; “inactive; negative” under setting [5]. Also, the mutagenic call is, setting by setting: (Test System: AMES SALMONELLA TYPHIMURIUM, Strain/Indicator: TA1535, Metabolic Activation: HAMSTER, LIVER, S-9, AROCLOR 1254, Method: PREINCUBATION) “inactive; negative”; under setting [3], “inactive; negative”; (Test System: AMES SALMONELLA TYPHIMURIUM, Strain/Indicator: TA1535, Metabolic Activation: RAT, LIVER, S-9, AROCLOR 1254, Method: PREINCUBATION) “inactive; negative”; (Test System: AMES SALMONELLA TYPHIMURIUM, Strain/Indicator: TA1537, Metabolic Activation: HAMSTER, LIVER, S-9, AROCLOR 1254, Method: PREINCUBATION) “inactive; negative”; under setting [4], “inactive; negative”; (Test System: AMES SALMONELLA TYPHIMURIUM, Strain/Indicator: TA1537, Metabolic Activation: RAT, LIVER, S-9, AROCLOR 1254, Method: PREINCUBATION) “inactive; negative”.

As for `CC[C@@]1(O)C[C@H](O[C@H]2C[C@H](N(C)C)[C@H](O[C@H]3C[C@H](O)[C@H](O[C@H]4CCC(=O)[C@H](C)O4)[C@H](C)O3)[C@H](C)O2)c2c(cc3c(c2O)C(=O)c2c(O)cccc2C3=O)[C@H]1C(=O)OC`, the mutagenic call runs as follows: (Test System: AMES SALMONELLA TYPHIMURIUM, Strain/Indicator: TA97, Metabolic Activation: NONE, Method: STANDARD PLATE) “inactive; negative”; (Test System: AMES SALMONELLA TYPHIMURIUM, Strain/Indicator: TA98, Metabolic Activation: NONE, Method: STANDARD PLATE) “inactive; negative”; (Test System: AMES SALMONELLA TYPHIMURIUM, Strain/Indicator: TA98, Metabolic Activation: RAT, LIVER, S-9, AROCLOR 1254, Method: STANDARD PLATE) “inactive; negative”; (Test System: AMES SALMONELLA TYPHIMURIUM, Strain/Indicator: TA100, Metabolic Activation: NONE, Method: STANDARD PLATE) “inactive; negative”; (Test System: AMES SALMONELLA TYPHIMURIUM, Strain/Indicator: TA104, Metabolic Activation: NONE, Method: STANDARD PLATE) “active; positive”; (Test System: AMES SALMONELLA TYPHIMURIUM, Strain/Indicator: TA1537, Metabolic Activation: NONE, Method: STANDARD PLATE) “inactive; negative”. Besides, the mutagenic call was “inactive; negative” (Test System: AMES SALMONELLA TYPHIMURIUM, Strain/Indicator: TA1538, Metabolic Activation: NONE, Method: STANDARD PLATE); “active; positive” (Test System: AMES SALMONELLA TYPHIMURIUM, Strain/Indicator: TA2637, Metabolic Activation: NONE, Method: STANDARD PLATE); “inactive; negative” (Test System: E. COLI, Strain/Indicator: WP2 (HCR), Metabolic Activation: NONE, Method: STANDARD PLATE).

On to `O=C/C=C/c1ccccc1[N+](=O)[O-]`, for which the mutagenic call runs as follows: under setting [2], “active; positive”; under setting [5], “active; positive”.
